≈ marks a conversion by molar mass, not a printed value.
Columns and labels:
[1] = Half life in Sprague-Dawley rat at 5 mg/kg,iv administrated at 0.25 to 24 hrs by LC-MS/MS analysis; assay type: ADME, organism-based; conditions: in vivo, time 0.25-24 hrs
[2] = Total clearance in Sprague-Dawley rat at 5 mg/kg,iv administrated at 0.25 to 24 hrs by LC-MS/MS analysis; assay type: ADME, organism-based; conditions: in vivo, time 0.25-24 hrs
[3] = Cmax in Sprague-Dawley rat at 15 mg/kg,po administrated at 0.25 to 24 hrs by LC-MS/MS analysis; assay type: ADME, organism-based; conditions: in vivo, time 0.25-24 hrs
[4] = AUC (0 to 24 hrs) in Sprague-Dawley rat at 15 mg/kg,po administrated at 0.25 to 24 hrs by LC-MS/MS analysis; assay type: ADME, organism-based; conditions: in vivo, time 0.25-24 hrs
[5] = Oral bioavailability in Sprague-Dawley rat at 15 mg/kg administrated at 0.25 to 24 hrs by LC-MS/MS analysis; assay type: ADME, organism-based; conditions: in vivo, time 0.25-24 hrs
[6] = Half life in Beagle dog at 5 mg/kg,iv administrated at 0.25 to 24 hrs by LC-MS/MS analysis; assay type: ADME, organism-based, Canis lupus familiaris; conditions: in vivo, time 0.25-24 hrs
[7] = Total clearance in Beagle dog at 5 mg/kg,iv administrated at 0.25 to 24 hrs by LC-MS/MS analysis; assay type: ADME, organism-based, Canis lupus familiaris; conditions: in vivo, time 0.25-24 hrs
[8] = Cmax in Beagle dog at 15 mg/kg,po administrated at 0.25 to 24 hrs by LC-MS/MS analysis; assay type: ADME, organism-based, Canis lupus familiaris; conditions: in vivo, time 0.25-24 hrs
[9] = AUC (0 to 24 hrs) in Beagle dog at 15 mg/kg,po administrated at 0.25 to 24 hrs by LC-MS/MS analysis; assay type: ADME, organism-based, Canis lupus familiaris; conditions: in vivo, time 0.25-24 hrs
[10] = Oral bioavailability in Beagle dog at 15 mg/kg administrated at 0.25 to 24 hrs by LC-MS/MS analysis; assay type: ADME, organism-based, Canis lupus familiaris; conditions: in vivo, time 0.25-24 hrs
[11] = Intrinsic clearance in human liver microsomes; assay type: ADME, Microsome; conditions: read-out: CLH
[12] = Intrinsic clearance in human hepatocyte measured per 10^6 cells; assay type: ADME, cell-based; conditions: hepatocytes, read-out: CLH
[13] = Lipophilicity, logP of compound; assay type: physicochemical; conditions: octanol/water
[14] = Dissociation constant, pKa of the compound; assay type: physicochemical
[15] = Aqueous solubility of the compound at pH 7.4; assay type: physicochemical
[16] = Aqueous solubility of the compound at pH 2; assay type: physicochemical
[17] = Solubility of compound in SGF; assay type: ADME
[18] = Solubility of compound in FaSSIF; assay type: ADME
[19] = Solubility of compound in FeSSIF; assay type: ADME
SNU-16 [20] = assay: Antitumor activity against human SNU-16 cells xenografted in mouse assessed as inhibition of tumor growth at po administrated once daily for 3 weeks; assay type: functional, organism-based
SNU-16 [21] = assay: Antitumor activity against human SNU-16 cells xenografted in mouse assessed as tumor growth inhibition at 2 mg/kg,po administrated once daily for 3 weeks relative to control; assay type: functional; conditions: SNU-16, 504 h, read-out: TGI
SNU-16 [22] = assay: Antitumor activity against human SNU-16 cells xenografted in mouse assessed as tumor growth inhibition at 5 mg/kg,po administrated once daily for 3 weeks relative to control; assay type: functional; conditions: SNU-16, 504 h, read-out: TGI
SNU-16 [23] = assay: Antitumor activity against human SNU-16 cells xenografted in mouse assessed as tumor growth inhibition at 15 mg/kg,po administrated once daily for 3 weeks relative to control; assay type: functional; conditions: SNU-16, 504 h, read-out: TGI
[24] = Toxicity in mouse xenografted with human SNU-16 cells assessed as body weight change at 2 to 15 mg/kg,po administrated once daily for 3 weeks; assay type: organism-based; conditions: in vivo, 504 h, dose 2-15 mg/kg
RT-112 [25] = assay: Antitumor activity against human RT-112 cells xenografted in mouse assessed as inhibition of tumor growth at po administrated once daily for 3 weeks; assay type: functional, organism-based
RT-112 [26] = assay: Antitumor activity against human RT-112 cells xenografted in mouse assessed as tumor growth inhibition at 2 mg/kg,po administrated once daily for 3 weeks relative to control; assay type: functional; conditions: RT-112, 504 h, read-out: TGI
RT-112 [27] = assay: Antitumor activity against human RT-112 cells xenografted in mouse assessed as tumor growth inhibition at 5 mg/kg,po administrated once daily for 3 weeks relative to control; assay type: functional; conditions: RT-112, 504 h, read-out: TGI
RT-112 [28] = assay: Antitumor activity against human RT-112 cells xenografted in mouse assessed as tumor growth inhibition at 15 mg/kg,po administrated once daily for 3 weeks relative to control; assay type: functional; conditions: RT-112, 504 h, read-out: TGI
[29] = Toxicity in mouse xenografted with human RT-112 cells assessed as body weight loss at 15 mg/kg,po administrated once daily for 3 weeks; assay type: organism-based; conditions: in vivo, 504 h
[30] = Antitumor activity against patient derived STO357 PDX cells xenografted in mouse assessed as tumor growth inhibition at 5 mg/kg,po administrated once daily for 3 weeks relative to control; assay type: functional; conditions: Homo sapiens, 504 h, read-out: TGI
[31] = Toxicity in mouse xenografted with patient derived STO357 PDX cells assessed as body weight change at 5 to 15 mg/kg,po administrated once daily for 3 weeks; assay type: organism-based; conditions: in vivo, 504 h, dose 5-15 mg/kg
[32] = Antitumor activity against patient derived STO357 PDX cells xenografted in mouse assessed as downregulation of ERK phosphorylation at 5 mg/kg,po administration and measured after 7 hrs by MSD assay; assay type: functional, Homo sapiens
[33] = Antitumor activity against patient derived STO357 PDX cells xenografted in mouse assessed as downregulation of ERK phosphorylation at 15 mg/kg,po administration and measured after 7 hrs by MSD assay; assay type: functional, Homo sapiens
[34] = Unbound drug concentration in mouse plasma xenografted with patient derived STO357 PDX cells at 15 mg/kg,po administration and measured after 15 mins by LC-MS/MS analysis; assay type: ADME, organism-based; conditions: in vivo, 0.25 h
[35] = Unbound drug concentration in mouse plasma xenografted with patient derived STO357 PDX cells at 15 mg/kg,po administration and measured after 1 hr by LC-MS/MS analysis; assay type: ADME, organism-based; conditions: in vivo
[36] = Unbound drug concentration in mouse plasma xenografted with patient derived STO357 PDX cells at 15 mg/kg,po administration and measured after 12 hr by LC-MS/MS analysis; assay type: ADME, organism-based; conditions: in vivo
SNU-16 [37] = assay: Antiproliferative activity against human SNU-16 cells assessed as inhibition of cell growth incubated for 5 days by Cell-titer glo assay; conditions: SNU-16, 120 h
CC-LP-1 [38] = assay: Antiproliferative activity against human CC-LP-1 cells assessed as inhibition of cell growth incubated for 3 days by Cell-titer glo assay; conditions: CC-LP-1, 72 h
CC-LP-1 [39] = assay: Antiproliferative activity against human CC-LP-1 cells expressing FGFR2 V565F mutant assessed as inhibition of cell growth incubated for 3 days by Cell-titer glo assay; conditions: CC-LP-1, 72 h
CC-LP-1 [40] = assay: Antiproliferative activity against human CC-LP-1 cells expressing FGFR2 N550H mutant assessed as inhibition of cell growth incubated for 3 days by Cell-titer glo assay; assay type: functional, cell-based; conditions: CC-LP-1, 72 h
CC-LP-1 [41] = assay: Antiproliferative activity against human CC-LP-1 cells expressing FGFR2 N550K mutant assessed as inhibition of cell growth incubated for 3 days by Cell-titer glo assay; conditions: CC-LP-1, 72 h
[42] = Antiproliferative activity against human ICC13-7 cells assessed as inhibition of cell growth incubated for 3 days by Cell-titer glo assay; conditions: ICC13-7, 72 h
[43] = Antiproliferative activity against human ICC13-7 cells expressing FGFR2 V565F mutant assessed as inhibition of cell growth incubated for 10 days by Cell-titer glo assay; conditions: ICC13-7, 240 h
[44] = Antiproliferative activity against human ICC13-7 cells expressing FGFR2 N550K mutant assessed as inhibition of cell growth incubated for 10 days by Cell-titer glo assay; conditions: ICC13-7, 240 h
RT-112 [45] = assay: Antiproliferative activity against human RT-112 cells assessed as inhibition of cell growth incubated for 5 days by Cell-titer glo assay; conditions: RT-112, 120 h
RT-112 [46] = assay: Antiproliferative activity against human RT-112 cells expressing FGFR3 assessed as inhibition of cell growth incubated for 5 days by Cell-titer glo assay; conditions: RT-112, 120 h
RT-112 [47] = assay: Antiproliferative activity against human RT-112 cells expressing FGFR3 V555M mutant assessed as inhibition of cell growth incubated for 5 days by Cell-titer glo assay; conditions: RT-112, 120 h
RT-112 [48] = assay: Antiproliferative activity against human RT-112 cells expressing FGFR3 N540K mutant assessed as inhibition of cell growth incubated for 5 days by Cell-titer glo assay; conditions: RT-112, 120 h
RT-112 [49] = assay: Antiproliferative activity against human RT-112 cells expressing FGFR3 K650M mutant assessed as inhibition of cell growth incubated for 5 days by Cell-titer glo assay; conditions: RT-112, 120 h
[50] = Antitumor activity against patient derived STO357 PDX cells xenografted in mouse assessed as tumor growth inhibition at 6 mg/kg,po administrated once daily for 3 weeks relative to control; conditions: Homo sapiens, 504 h, read-out: TGI

C=CC(=O)N1C[C@@H](n2nc(C#Cc3c(F)cc4c(ncn4C4CC4)c3F)c(C(N)=O)c2NC)C[C@@H]1COC [RESIGRATINIB]
half-life [1]: 5.46 h | clearance [2]: 16.1 mL/min/kg | Cmax [3]: 1490 ng/mL | AUC(0-t) [4]: 3740 ng·h/mL | bioavailability [5]: 24.3% | half-life [6]: 6.89 h | clearance [7]: 23.9 mL/min/kg | Cmax [8]: 815 ng/mL | AUC(0-t) [9]: 2100 ng·h/mL | bioavailability [10]: 17.5% | microsomal CLint [11]: 59.6 µL/min/mg | hepatocyte CLint [12]: 7.2 µL/min/1e6 cells | logP [13]: 2.5 | pKa [14]: 2.22 | solubility [15]: 69.7 µM (≈ 36.5 µg/mL) | solubility [16]: 301 µM (≈ 158 µg/mL) | solubility [17]: 800 µg/mL (≈ 1530 µM) | solubility [18]: 400 µg/mL (≈ 764 µM) | solubility [19]: 300 µg/mL (≈ 573 µM) | Activity (SNU-16 [20]): Dose-Dependent Effect | inhibition in vivo at 2 mg/kg (SNU-16 [21]): 69% | inhibition in vivo at 5 mg/kg (SNU-16 [22]): 81% | inhibition in vivo at 15 mg/kg (SNU-16 [23]): 93% | Activity [24]: Non-Toxic | Activity (RT-112 [25]): Dose-Dependent Effect | inhibition in vivo at 2 mg/kg (RT-112 [26]): 80% | inhibition in vivo at 5 mg/kg (RT-112 [27]): 91% | inhibition in vivo at 15 mg/kg (RT-112 [28]): 99% | Activity [29]: 5.4% | inhibition in vivo at 5 mg/kg [30]: 90% | Activity [31]: Non-Toxic | Activity [32]: 25% | Activity [33]: 75% | Cp(f) [34]: ~ 100 ng/ml | Cp(f) [35]: ~ 50 ng/ml | Drug uptake(free) [36]: Not Active

C=CC(=O)N1CC[C@H](n2nc(C#Cc3cc(OC)cc(OC)c3)c3c(N)ncnc32)C1 [FUTIBATINIB]
IC50 (SNU-16 [37]): 4.7 nM | IC50 (CC-LP-1 [38]): 1.3 nM | IC50 (CC-LP-1 [39]): 105 nM | IC50 (CC-LP-1 [40]): 1.4 nM | IC50 (CC-LP-1 [41]): 5.5 nM | IC50 [42]: 1.8 nM | IC50 [43]: 143 nM | IC50 [44]: 13.8 nM | IC50 (RT-112 [45]): 6.7 nM | IC50 (RT-112 [46]): 19.6 nM | IC50 (RT-112 [47]): 390 nM | IC50 (RT-112 [48]): 73.4 nM | IC50 (RT-112 [49]): 74.3 nM | inhibition in vivo at 6 mg/kg [50]: 48%
